# Measured values taken from article PMC5218480 (PLoS ONE, 2017).
# Test system: MV-4-11 cells
# Assay: Gene expression microarray analysis (Affymetrix PrimeView) and GSEA
# Format: cell-based, human
# Design: RFU PODN (11730768_x_at) / Fold change /veh PODN (11730768_x_at) / RFU LINC00158 (11744669_a_at) / Fold change /veh LINC00158 (11744669_a_at) / RFU DUSP10 (11751237_a_at) / Fold change /veh DUSP10 (11751237_a_at) / RFU ID3 (11757404_x_at) / Fold change /veh ID3 (11757404_x_at) / RFU PLEKHG5 (11737974_s_at) / Fold change /veh PLEKHG5 (11737974_s_at) / RFU LRRC4B (11730491_at) / Fold change /veh LRRC4B (11730491_at) / RFU GIMAP4 (11747438_a_at) / Fold change /veh GIMAP4 (11747438_a_at) / RFU KRT8 (11758183_x_at) / Fold change /veh KRT8 (11758183_x_at) / RFU CNN1 (11734310_a_at) / Fold change /veh CNN1 (11734310_a_at) / RFU VPS37D (11726825_at) / Fold change /veh VPS37D (11726825_at) / RFU C10orf10 (11716522_x_at) / Fold change /veh C10orf10 (11716522_x_at) / RFU KIR2DL2 /// KIR2DL4 /// KIR2DL5A /// KIR2DL5B /// KIR2DS1 /// KIR2DS2 /// KIR2DS3 /// KIR2DS4 /// KIR3DL3 /// KIR3DL3 /// KIR3DS1 (11738374_at) / Fold change /veh KIR2DL2 /// KIR2DL4 /// KIR2DL5A /// KIR2DL5B /// KIR2DS1 /// KIR2DS2 /// KIR2DS3 /// KIR2DS4 /// KIR3DL3 /// KIR3DL3 /// KIR3DS1 (11738374_at) / RFU C1QL1 (11718748_at) / Fold change /veh C1QL1 (11718748_at) / RFU TMPRSS4 (11747572_a_at) / Fold change /veh TMPRSS4 (11747572_a_at) / RFU HAMP (11756126_x_at) / Fold change /veh HAMP (11756126_x_at) / RFU RNFT2 (11725882_a_at) / Fold change /veh RNFT2 (11725882_a_at) / RFU NR4A2 (11747474_a_at) / Fold change /veh NR4A2 (11747474_a_at) / RFU ABCC12 (11746883_a_at) / Fold change /veh ABCC12 (11746883_a_at) / RFU TMEM136 (11760407_x_at) / Fold change /veh TMEM136 (11760407_x_at) / RFU CLDN22 /// WWC2 (11732394_at) / Fold change /veh CLDN22 /// WWC2 (11732394_at) / RFU HLA-DPB1 (11760878_x_at) / Fold change /veh HLA-DPB1 (11760878_x_at) / RFU SPINT1 (11716480_a_at) / Fold change /veh SPINT1 (11716480_a_at) / RFU GAP43 (11754022_s_at) / Fold change /veh GAP43 (11754022_s_at) / RFU A4GNT (11735810_at) / Fold change /veh A4GNT (11735810_at) / RFU PRB3 (11715151_x_at) / Fold change /veh PRB3 (11715151_x_at) / RFU TUBB4B (11761932_at) / Fold change /veh TUBB4B (11761932_at) / RFU CAPN14 (11732068_a_at) / Fold change /veh CAPN14 (11732068_a_at) / RFU TMCC2 (11721928_a_at) / Fold change /veh TMCC2 (11721928_a_at) / RFU IRGQ (11745062_a_at) / Fold change /veh IRGQ (11745062_a_at) / RFU FAM174B (11720279_a_at) / Fold change /veh FAM174B (11720279_a_at) / RFU TMPRSS4 (11748680_a_at) / Fold change /veh TMPRSS4 (11748680_a_at) / RFU FAM212B (11763350_a_at) / Fold change /veh FAM212B (11763350_a_at) / RFU PLEKHG5 (11743358_a_at) / Fold change /veh PLEKHG5 (11743358_a_at) / RFU ZSCAN30 (11745921_a_at) / Fold change /veh ZSCAN30 (11745921_a_at) / RFU CMKLR1 (11741424_a_at) / Fold change /veh CMKLR1 (11741424_a_at) / RFU LOC101060620 /// MAPK8IP1 (11723275_at) / Fold change /veh LOC101060620 /// MAPK8IP1 (11723275_at) / RFU SPTSSB (11747773_x_at) / Fold change /veh SPTSSB (11747773_x_at) / RFU PRSS12 (11739890_at) / Fold change /veh PRSS12 (11739890_at) / RFU BIN1 (11741810_x_at) / Fold change /veh BIN1 (11741810_x_at) / RFU WNT11 (11732464_a_at) / Fold change /veh WNT11 (11732464_a_at) / RFU C10orf10 (11716521_a_at) / Fold change /veh C10orf10 (11716521_a_at) / RFU C5orf56 (11738089_at) / Fold change /veh C5orf56 (11738089_at) / RFU CYB561 (11721691_x_at) / Fold change /veh CYB561 (11721691_x_at) / RFU ANKRD19P (11752326_a_at) / Fold change /veh ANKRD19P (11752326_a_at) / RFU OR2T12 /// OR2T33 /// OR2T8 (11738714_s_at) / Fold change /veh OR2T12 /// OR2T33 /// OR2T8 (11738714_s_at) / RFU VCAN (11748164_a_at) / Fold change /veh VCAN (11748164_a_at) / RFU JSRP1 (11732532_at) / Fold change /veh JSRP1 (11732532_at) / RFU KRTAP10-11 (11738290_x_at) / Fold change /veh KRTAP10-11 (11738290_x_at) / RFU MYO3A (11730013_a_at) / Fold change /veh MYO3A (11730013_a_at) / RFU EBF3 (11725865_a_at) / Fold change /veh EBF3 (11725865_a_at) / RFU CAMK2N1 (11719241_x_at) / Fold change /veh CAMK2N1 (11719241_x_at) / RFU C5orf56 (11738088_a_at) / Fold change /veh C5orf56 (11738088_a_at) / RFU OLFML3 (11715873_a_at) / Fold change /veh OLFML3 (11715873_a_at) / RFU LOC100653217 /// NTM (11731650_a_at) / Fold change /veh LOC100653217 /// NTM (11731650_a_at) / RFU MAPK11 (11762145_a_at) / Fold change /veh MAPK11 (11762145_a_at) / RFU FIZ1 (11724087_x_at) / Fold change /veh FIZ1 (11724087_x_at) / RFU OASL (11726364_x_at) / Fold change /veh OASL (11726364_x_at) / RFU SOX15 (11748057_x_at) / Fold change /veh SOX15 (11748057_x_at) / RFU CD79A (11719716_a_at) / Fold change /veh CD79A (11719716_a_at) / RFU HIST1H1D (11736915_at) / Fold change /veh HIST1H1D (11736915_at) / RFU CASKIN2 (11723855_a_at) / Fold change /veh CASKIN2 (11723855_a_at) / RFU LOC730098 (11760151_x_at) / Fold change /veh LOC730098 (11760151_x_at) / RFU OR4N2 (11742367_at) / Fold change /veh OR4N2 (11742367_at) / RFU PRRT2 (11749266_a_at) / Fold change /veh PRRT2 (11749266_a_at) / RFU SNX32 (11753110_a_at) / Fold change /veh SNX32 (11753110_a_at) / RFU CDHR5 (11726645_a_at) / Fold change /veh CDHR5 (11726645_a_at) / RFU RCAN1 (11760418_a_at) / Fold change /veh RCAN1 (11760418_a_at) / RFU FAM167A (11723789_a_at) / Fold change /veh FAM167A (11723789_a_at) / RFU FAM26E (11764081_at) / Fold change /veh FAM26E (11764081_at) / RFU ISYNA1 (11749810_s_at) / Fold change /veh ISYNA1 (11749810_s_at) / RFU ACY1 (11761880_at) / Fold change /veh ACY1 (11761880_at) / RFU 11764098_at / Fold change /veh 11764098_at / RFU SAMD14 (11745864_x_at) / Fold change /veh SAMD14 (11745864_x_at) / RFU NPB (11741838_a_at) / Fold change /veh NPB (11741838_a_at) / RFU TMPRSS6 (11731388_a_at) / Fold change /veh TMPRSS6 (11731388_a_at) / RFU KRTAP10-2 (11738614_at) / Fold change /veh KRTAP10-2 (11738614_at) / RFU ARHGAP8 /// PRR5-ARHGAP8 (11727945_x_at) / Fold change /veh ARHGAP8 /// PRR5-ARHGAP8 (11727945_x_at) / RFU KRTAP5-7 /// NADSYN1 (11734609_at) / Fold change /veh KRTAP5-7 /// NADSYN1 (11734609_at) / RFU RASL12 (11751679_a_at) / Fold change /veh RASL12 (11751679_a_at) / RFU CDKN2B (11736163_a_at) / Fold change /veh CDKN2B (11736163_a_at) / RFU PRF1 (11729649_at) / Fold change /veh PRF1 (11729649_at) / RFU, ZNF638 /// ZNF638-IT1 / Fold change vs veh, ZNF638 /// ZNF638-IT1 / RFU, PANK3 / Fold change vs veh, PANK3 / RFU, SH3YL1 / Fold change vs veh, SH3YL1 / RFU, ZEB2 / Fold change vs veh, ZEB2 / RFU, NRIP1 / Fold change vs veh, NRIP1 / RFU, PTTG1IP / Fold change vs veh, PTTG1IP / RFU, CAPN2 / Fold change vs veh, CAPN2 / RFU, MED14 / Fold change vs veh, MED14 / RFU, SNORA58 / Fold change vs veh, SNORA58 / RFU, C1orf63 / Fold change vs veh, C1orf63 / RFU, LRRFIP1 / Fold change vs veh, LRRFIP1 / RFU, NDUFAF7 / Fold change vs veh, NDUFAF7 / RFU, SLC12A2 / Fold change vs veh, SLC12A2 / RFU, IBTK / Fold change vs veh, IBTK / RFU, ESF1 / Fold change vs veh, ESF1 / Fold change vs veh, TMEM50B / RFU, TAOK1 / Fold change vs veh, TAOK1 / RFU, ACBD3 / Fold change vs veh, ACBD3 / RFU, TMA16 / Fold change vs veh, TMA16 / RFU, RWDD3 / Fold change vs veh, RWDD3 / RFU, BCAT1 / Fold change vs veh, BCAT1 / RFU, EDEM3 / Fold change vs veh, EDEM3 / RFU, TMEM33 / Fold change vs veh, TMEM33 / RFU, WDR75 / Fold change vs veh, WDR75 / RFU, AHCTF1 / Fold change vs veh, AHCTF1 / RFU, TFRC / Fold change vs veh, TFRC / RFU, ZDHHC17 / Fold change vs veh, ZDHHC17 / RFU, NOM1 / Fold change vs veh, NOM1 / RFU, ARL8B / Fold change vs veh, ARL8B / RFU, ZBTB11 / Fold change vs veh, ZBTB11 / RFU, TAMM41 / Fold change vs veh, TAMM41 / RFU, KIAA1704 /// LOC100996395 / Fold change vs veh, KIAA1704 /// LOC100996395 / RFU, ING1 / Fold change vs veh, ING1 / RFU, TRMT61B / Fold change vs veh, TRMT61B / RFU, FUBP3 / Fold change vs veh, FUBP3 / RFU, TP53 / Fold change vs veh, TP53 / RFU, TNKS2 / Fold change vs veh, TNKS2 / RFU, ZFP14 / Fold change vs veh, ZFP14 / RFU, ACTR2 / Fold change vs veh, ACTR2 / RFU, PPP3R1 / Fold change vs veh, PPP3R1 / RFU, PIK3R1 / Fold change vs veh, PIK3R1 / RFU, HNRNPA1 / Fold change vs veh, HNRNPA1 / RFU, RNF170 / Fold change vs veh, RNF170 / RFU, ZNF28 / Fold change vs veh, ZNF28 / RFU, RNGTT / Fold change vs veh, RNGTT / RFU, OGT / Fold change vs veh, OGT / RFU, BRD1 / Fold change vs veh, BRD1 / RFU, MARS / Fold change vs veh, MARS / RFU, ZNF655 / Fold change vs veh, ZNF655 / RFU, FAHD1 / Fold change vs veh, FAHD1 / RFU, BDP1 / Fold change vs veh, BDP1 / RFU, LRRCC1 / Fold change vs veh, LRRCC1 / RFU, ARID1A / Fold change vs veh, ARID1A / RFU, ZNF146 / Fold change vs veh, ZNF146 / RFU, ZNF330 / Fold change vs veh, ZNF330 / RFU, GPN3 / Fold change vs veh, GPN3 / RFU, C9orf123 / Fold change vs veh, C9orf123 / RFU, N4BP2L2 / Fold change vs veh, N4BP2L2 / RFU, ARFIP1 / Fold change vs veh, ARFIP1 / RFU, FAM179B / Fold change vs veh, FAM179B / RFU, BCL10 / Fold change vs veh, BCL10 / RFU, UHRF1BP1L / Fold change vs veh, UHRF1BP1L / RFU, BET1 / Fold change vs veh, BET1 / RFU, CNOT2 / Fold change vs veh, CNOT2 / RFU, ZNF268 / Fold change vs veh, ZNF268 / Fold change vs veh, ZNF507 / RFU, DGCR2 / Fold change vs veh, DGCR2 / RFU, WDSUB1 / Fold change vs veh, WDSUB1 / Fold change vs veh, HSP90B1 /// MIR3652 / RFU, ADSS / Fold change vs veh, ADSS / RFU, GK / Fold change vs veh, GK / RFU, ZNF148 / Fold change vs veh, ZNF148 / RFU, TAF9 / Fold change vs veh, TAF9 / RFU, SLC1A5 / Fold change vs veh, SLC1A5 / RFU, SLMO2 / Fold change vs veh, SLMO2 / RFU, ABCC4 / Fold change vs veh, ABCC4 / RFU, LOC101060439 /// RAP1B / Fold change vs veh, LOC101060439 /// RAP1B / RFU, RFX7 / Fold change vs veh, RFX7 / RFU, GTPBP10 / Fold change vs veh, GTPBP10 / RFU, CNEP1R1 / Fold change vs veh, CNEP1R1 / RFU, BIVM-ERCC5 /// ERCC5 / Fold change vs veh, BIVM-ERCC5 /// ERCC5 / RFU, ILF3 / Fold change vs veh, ILF3 / RFU 11762660_at / Fold change /veh 11762660_at / RFU VCAN (11757783_s_at) / Fold change /veh VCAN (11757783_s_at) / RFU DDX43 (11728927_at) / Fold change /veh DDX43 (11728927_at) / RFU KRT8 (11758188_x_at) / Fold change /veh KRT8 (11758188_x_at) / RFU NKD1 (11759106_at) / Fold change /veh NKD1 (11759106_at) / RFU SRD5A1 (11742802_a_at) / Fold change /veh SRD5A1 (11742802_a_at) / RFU TPSAB1 /// TPSB2 (11721975_s_at) / Fold change /veh TPSAB1 /// TPSB2 (11721975_s_at) / RFU GSTM3 (11746129_a_at) / Fold change /veh GSTM3 (11746129_a_at) / RFU IL23R (11737362_x_at) / Fold change /veh IL23R (11737362_x_at) / RFU TMEM51 (11727254_a_at) / Fold change /veh TMEM51 (11727254_a_at) / RFU PIWIL2 (11732686_x_at) / Fold change /veh PIWIL2 (11732686_x_at) / RFU ORM1 (11744905_x_at) / Fold change /veh ORM1 (11744905_x_at) / RFU CCDC152 (11743942_at) / Fold change /veh CCDC152 (11743942_at) / RFU ECM1 (11717891_a_at) / Fold change /veh ECM1 (11717891_a_at) / RFU IL23R (11748794_a_at) / Fold change /veh IL23R (11748794_a_at) / RFU TNFAIP8L3 (11732012_x_at) / Fold change /veh TNFAIP8L3 (11732012_x_at) / RFU MBOAT4 (11741988_at) / Fold change /veh MBOAT4 (11741988_at) / RFU 11764193_at / Fold change /veh 11764193_at / RFU TMEM53 (11763286_at) / Fold change /veh TMEM53 (11763286_at) / RFU MAGEB2 (11727129_at) / Fold change /veh MAGEB2 (11727129_at) / RFU TMEM200A (11744735_a_at) / Fold change /veh TMEM200A (11744735_a_at) / RFU CCDC152 (11751479_a_at) / Fold change /veh CCDC152 (11751479_a_at) / RFU FAM211A (11726209_a_at) / Fold change /veh FAM211A (11726209_a_at) / RFU RGS16 (11746705_a_at) / Fold change /veh RGS16 (11746705_a_at) / RFU VCAN (11755009_s_at) / Fold change /veh VCAN (11755009_s_at) / RFU RHOB (11743442_s_at) / Fold change /veh RHOB (11743442_s_at) / RFU RGS16 (11720943_a_at) / Fold change /veh RGS16 (11720943_a_at) / RFU RGS16 (11720944_at) / Fold change /veh RGS16 (11720944_at) / RFU, VPS4B / Fold change vs veh, VPS4B / RFU, CREB1 / Fold change vs veh, CREB1 / RFU, DNAJC13 / Fold change vs veh, DNAJC13 / RFU, GNAQ / Fold change vs veh, GNAQ / RFU, CDK5R1 / Fold change vs veh, CDK5R1 / RFU, ZRANB3 / Fold change vs veh, ZRANB3 / RFU, CUL4A / Fold change vs veh, CUL4A / RFU, CCNY / Fold change vs veh, CCNY / RFU, UFL1 / Fold change vs veh, UFL1 / RFU, COG3 / Fold change vs veh, COG3 / RFU, DIAPH2 / Fold change vs veh, DIAPH2 / RFU, SKA2 / Fold change vs veh, SKA2 / RFU, AFF3 / Fold change vs veh, AFF3 / RFU, LMF1 / Fold change vs veh, LMF1 / RFU, IPO11 / Fold change vs veh, IPO11 / RFU, DFFB / Fold change vs veh, DFFB / RFU, FOXP1 / Fold change vs veh, FOXP1 / RFU, CARD8 / Fold change vs veh, CARD8 / RFU, STRN3 / Fold change vs veh, STRN3 / RFU, ADK / Fold change vs veh, ADK / RFU, RASSF2 / Fold change vs veh, RASSF2 / RFU, WIPF1 / Fold change vs veh, WIPF1 / RFU, LARP1B / Fold change vs veh, LARP1B / RFU, RASA1 / Fold change vs veh, RASA1 / RFU, RB1 / Fold change vs veh, RB1 / RFU, PPFIA1 / Fold change vs veh, PPFIA1 / RFU, MAT2A / Fold change vs veh, MAT2A / RFU, CCT5 / Fold change vs veh, CCT5 / RFU, WDR92 / Fold change vs veh, WDR92 / RFU, CUX1 / Fold change vs veh, CUX1 / RFU, TTC7A / Fold change vs veh, TTC7A / RFU, TMEM135 / Fold change vs veh, TMEM135 / RFU, DEPTOR / Fold change vs veh, DEPTOR / RFU, CPM / Fold change vs veh, CPM / RFU, DNAJB6 / Fold change vs veh, DNAJB6 / RFU, CACNA2D3 / Fold change vs veh, CACNA2D3 / RFU, DTX4 / Fold change vs veh, DTX4 / RFU, TFCP2 / Fold change vs veh, TFCP2 / RFU, GMCL1 /// GMCL1P1 / Fold change vs veh, GMCL1 /// GMCL1P1 / RFU, AEBP2 / Fold change vs veh, AEBP2 / RFU, SNHG1 /// SNORD22 /// SNORD25 /// SNORD26 /// SNORD27 /// SNORD28 /// SNORD29 /// SNORD31 / Fold change vs veh, SNHG1 /// SNORD22 /// SNORD25 /// SNORD26 /// SNORD27 /// SNORD28 /// SNORD29 /// SNORD31 / Fold change (Aza/veh), C12orf56 (ProbeSet 11735607_a_at) / Fold change (ACY-1035/veh), C12orf56 (ProbeSet 11735607_a_at) / Fold change (Aza/veh), FGFR1OP (ProbeSet 11751329_s_at) / Fold change (ACY-1035/veh), FGFR1OP (ProbeSet 11751329_s_at) / Fold change (Aza/veh), VPS36 (ProbeSet 11739960_a_at) / Fold change (ACY-1035/veh), VPS36 (ProbeSet 11739960_a_at) / RFU SYPL1 (11715823_x_at) / Fold change /veh SYPL1 (11715823_x_at) / RFU IGFBP7 (11715501_s_at) / Fold change /veh IGFBP7 (11715501_s_at) / RFU REEP3 (11722064_at) / Fold change /veh REEP3 (11722064_at) / RFU IGLL1 (11728026_x_at) / Fold change /veh IGLL1 (11728026_x_at): dose or concentration left out as unconfirmed
# Conditions: ProbeSet 11732165_x_at; LIST D
compound,measurement,value
Nc1ncn([C@@H]2O[C@H](CO)[C@@H](O)[C@H]2O)c(=O)n1 [azacitidine],"Fold change vs veh, LMF1",0.71
